# Laboratory results taken from publication PMC9026026 (ACS Omega, 2022).
# Several values for one entry are separate records, joined by “and”; a condition that tells them apart may be missing. Equal entries are not always repeated. Where two headings read alike, the source gives them in different places.
# T1: CYP2C8 (Homo sapiens, UniProt P10632)
# T1 sequence (P10632 1-490): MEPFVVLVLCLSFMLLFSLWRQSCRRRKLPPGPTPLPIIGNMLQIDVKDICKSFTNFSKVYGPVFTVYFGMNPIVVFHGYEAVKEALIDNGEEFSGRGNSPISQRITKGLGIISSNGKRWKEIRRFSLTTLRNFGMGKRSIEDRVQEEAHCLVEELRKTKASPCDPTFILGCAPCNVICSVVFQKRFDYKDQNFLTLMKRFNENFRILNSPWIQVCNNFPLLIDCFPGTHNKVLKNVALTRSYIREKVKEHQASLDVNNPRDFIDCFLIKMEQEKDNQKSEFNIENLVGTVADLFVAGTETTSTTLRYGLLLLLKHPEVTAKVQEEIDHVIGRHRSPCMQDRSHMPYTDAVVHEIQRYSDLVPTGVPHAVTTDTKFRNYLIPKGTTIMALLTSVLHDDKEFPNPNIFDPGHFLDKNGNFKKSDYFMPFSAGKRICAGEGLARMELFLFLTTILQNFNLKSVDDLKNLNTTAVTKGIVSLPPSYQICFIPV
# B1: CYP2C8 (Homo sapiens) (protein)
# chain: T1 sequence (P10632 1-490)
# What was measured:
# [1] = format: in vivo, Wistar rats; conditions: for Cmax: mean ± SEM (n = 5)
# [2] = cited from earlier work; for elevation of oral exposure of repaglinide upon coadministration: clinical
# CYP2C8 [3] = conditions: read-out: IC50 for CYP2C8 inhibitory activity; mixed type of inhibition; cited from earlier work
# [4] = cited from earlier work
# CYP2C8 [5] = biological target: T1, CYP2C8; conditions: read-out: Ki for CYP2C8 inhibition in HLM; cited from earlier work
# CYP2C8 [6] = biological target: T1, CYP2C8; test: biochemical
# CYP2C8 [7] = biological target: T1, CYP2C8
# CYP2D6 = conditions: read-out: IC50 for CYP2D6; cited from earlier work
# [8] = tested on: amodiaquine metabolism in rat liver microsomes (RLM); format: in vitro ADME; conditions: RLM 0.5 mg/mL, amodiaquine 2 μM, myricetin 0, 10, 100 μM, 30 min
# CYP3A4 = conditions: cited from earlier work; for Ki: read-out: Ki for CYP3A4
# [9] = rat model; cited from earlier work
# [10] = substrate: CCN(CC)Cc1cc(Nc2ccnc3cc(Cl)ccc23)ccc1O; test: Kinetic parameters of CYP2C8-catalyzed amodiaquine-N-deethylation in HLM; format: in vitro ADME, human; conditions: other: HLM, N-desethylamodiaquine formation; pH 7.4; 37.0 °C
# [11] = rats, amodiaquine 60 mg/kg oral alone (Group-I)
# [12] = rats, myricetin 5 mg/kg i.v. followed by amodiaquine 60 mg/kg oral (Group-II)
molecule,measurement,setting,value
CCNCc1cc(Nc2ccnc3cc(Cl)ccc23)ccc1O [N-desethylamodiaquine],AUC0–t,[1]; [11],1313.30 ± 349.54 ng·h/mL
same,AUC0–∞,[1]; [11],3362.65 ± 667.75 ng·h/mL
same,MRT,[1]; [11],18.70 ± 4.68 h
same,T1/2,[1]; [11],11.65 ± 3.21 h
same,Tmax,[1]; [11],4.20 ± 0.80 h
same,Cmax,[1]; [11],370.40 ± 125.05 ng/mL
same,AUC0–t,[1]; [12],2061.57 ± 452.16 ng·h/mL
same,AUC0–∞,[1]; [12],3980.79 ± 1273.24 ng·h/mL
same,MRT,[1]; [12],12.64 ± 4.42 h
same,T1/2,[1]; [12],7.91 ± 3.00 h
same,Tmax,[1]; [12],3.60 ± 0.81 h
CCN(CC)Cc1cc(Nc2ccnc3cc(Cl)ccc23)ccc1O [amodiaquine],AUC(0-t),"[1]; male, Wistar, rat, plasma, po, 60 mg/kg, AUC0–t, rats, amodiaquine 60 mg/kg oral alone (Group-I)",3120 ± 414 ng·h/mL
same,Cmax,"[1]; male, Wistar, rat, plasma, po, 60 mg/kg, Cmax, rats, amodiaquine 60 mg/kg oral alone (Group-I)",1030 ± 247 ng/mL
same,half-life,"[1]; male, Wistar, rat, plasma, po, 60 mg/kg, T1/2, rats, amodiaquine 60 mg/kg oral alone (Group-I)",2.16 ± 0.3 h
COC(=O)[C@H](c1ccccc1Cl)N1CCc2sccc2C1 [clopidogrel],elevation of oral exposure of repaglinide upon coadministration,[2],5 fold
O=c1c(O)c(-c2ccc(O)c(O)c2)oc2cc(O)ccc12 [fisetin],IC50,CYP2C8 [3],10.8 µM
Cc1ccc(C)c(OCCCC(C)(C)C(=O)O)c1 [gemfibrozil],Cmax,"[4]; 600 mg twice daily, healthy human volunteers",16850 ng/mL
same,Ki,CYP2C8 [5],10.2 µM
same,increase in oral exposure of cerivastatin,[2]; human subjects,about 5.6 fold
same,enhancement of AUC of repaglinide,[2]; humans,8.3 fold
same,enhancement of Cmax of repaglinide,[2]; humans,2.4 fold
same,enhancement of bioavailability of sitagliptin,[2]; humans,54%
O=c1c(O)c(-c2ccc(O)cc2O)oc2cc(O)cc(O)c12 [morin],IC50,CYP2C8 [3],17.3 µM
"O=c1c(O)c(-c2cc(O)c(O)c(O)c2)oc2cc(O)cc(O)c12 [myricetin, Myricetin]",Ki,CYP2C8 [6],1.7 ± 0.11 µM
same,IC50,CYP2C8 [7],2.4 ± 0.05 µM
same,α-value,"CYP2C8 [7]; HLM, mixed inhibition model",3.55
same,IC50,CYP2D6,30.2 µM
same,Cmax in plasma,"[4]; humans, oral cranberry juice containing myricetin",21600 ± 5700 ng/mL
same,percent of amodiaquine remaining,[8],increased with the increasing concentration of myricetin
same,IC50,CYP3A4; read-out: IC50 for CYP3A4,10.7 µM and 20.3 µM
same,plasma exposure of N-desethylamodiaquine,"[1]; rats, myricetin coadministration vs amodiaquine without myricetin",Substantial elevation
O=c1c(O)c(-c2ccc(O)c(O)c2)oc2cc(O)cc(O)c12 [quercetin],enhancement of oral exposure of repaglinide,[9],1.8 fold
same,Cmax,"[4]; humans, 100 mg dose",2310 ng/mL
Oc1ccc(/C=C/c2cc(O)cc(O)c2)cc1 [trans-resveratrol],Cmax,"[4]; humans, 2000 mg dose",1274 ng/mL
same,decrease of clearance of carbamazepine,[2]; clinical study,33%
same,enhancement of AUC of carbamazepine,[2]; clinical study,1.4 fold
COc1cc(Cc2cnc(N)nc2N)cc(OC)c1OC [trimethoprim],elevation of oral exposure of repaglinide upon coadministration,[2],2 fold
B1,Km,[10],4.7 ± 0.12 µM
same,Vmax,[10],3996 ± 46 pmol/min/mg protein
